Experimental data from US9249453B2, “Method for identifying a malodor inhibitor” (Kao Corporation, priority 2011, dated 2016).

Key:
Format in all cases: cell-based
OR2W1 = target: T1, OR2W1 (Homo sapiens, UniProt Q9Y3N9); test: Luciferase reporter assay: suppression of the skatole response of OR2W1 expressed in HEK293 cells; conditions: test substance 100 μM mixed with 300 μM skatole, HEK293 cells expressing OR2W1; for inhibition at 100 µM: 4 h, read-out: Inhibition rate 2W1
T1 construct: expressed in transfected cells; host or cells: HEK293
T1 sequence (Q9Y3N9 1-320): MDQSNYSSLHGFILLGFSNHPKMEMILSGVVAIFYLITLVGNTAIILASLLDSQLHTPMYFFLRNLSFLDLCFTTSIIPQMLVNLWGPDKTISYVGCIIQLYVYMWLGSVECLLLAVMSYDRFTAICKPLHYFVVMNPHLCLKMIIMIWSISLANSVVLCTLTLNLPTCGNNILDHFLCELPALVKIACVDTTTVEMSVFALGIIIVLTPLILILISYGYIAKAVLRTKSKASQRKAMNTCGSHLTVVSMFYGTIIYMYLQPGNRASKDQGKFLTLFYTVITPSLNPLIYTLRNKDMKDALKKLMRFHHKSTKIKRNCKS
Method: (§1) A reaction solution having a composition shown in Table 1 was prepared on a clean bench, and left to stand for 15 minutes. The solution was dispensed to each well of a 96-well plate (BD). Subsequently, HEK293 cells (100 μL, 3×10^5 cells/cm^2) were seeded in each well and cultured for 24 hours in an incubator at 37° C. and under 5% CO2 conditions.
(§2) The olfactory receptor expressed in HEK293 cells activates adenylate cyclase with the aid of Gαs present in cells, to thereby increase intracellular cAMP level. In this study, odorant response was measured by a luciferase reporter gene assay which monitored the intracellular cAMP level as the luminescence value derived from a firefly luciferase gene (fluc2P-CRE-hygro). Also, a Renilla luciferase gene fused downstream of a CMV promoter (hRluc-CMV) was also transfected to HEK293 cells as an internal standard to correct errors in gene transfer efficiency and number of cells.
(§3) Cell culturing was performed for four hours in a CO2-incubator, whereby the luciferase gene sufficiently expressed in the cells. Luciferase activity was measured by means of a Dual-Glo™ luciferase assay system (promega) according to an instruction manual thereof. The luminescence value derived from firefly luciferase induced by odorant stimulation was divided by the luminescence value of cells which were not stimulated with odorants. The thus-obtained—called “fold increase”—was employed as an index for response intensity.
(§4) The response inhibition rate of a test substance was calculated as follows. Firstly, luminescence value derived from firefly luciferase induced by stimulation with skatole (X), and luminescence value in cells which expressed the same receptor but were not stimulated with skatole (Y) were determined. By subtracting Y from X, the receptor activity by stimulation with skatole alone (X−Y) was determined. Similarly, the luminescence value induced by stimulation with a mixture of skatole and a test substance (Z) was determined. Through subtracting Y (the luminescence value in cells which expressed the same receptor but were not stimulated with skatole) from Z, the receptor activity (Z−Y) by stimulation with a mixture of skatole and the test substance was obtained. From the thus-obtained receptor activity by stimulation with skatole alone (X−Y) and the receptor activity in the presence of a test material (Z−Y), the response inhibition rate of the test substance was calculated by the following equation: Inhibition rate (%)={1−(Z−Y)/(X−Y)}×100.
(§5) In each case, multiple independent experiments were performed in duplicate, and the average of each experiment was used.

OR5K1 = target: T2, OR5K1 (Homo sapiens, UniProt Q8NHB7); test: Luciferase reporter assay: suppression of the skatole response of OR5K1 expressed in HEK293 cells; conditions: test substance 100 μM mixed with 300 μM skatole, HEK293 cells expressing OR5K1; for inhibition at 100 µM: 4 h, read-out: Inhibition rate 5K1
T2 construct: expressed in transfected cells; host or cells: HEK293
T2 sequence (Q8NHB7 1-308): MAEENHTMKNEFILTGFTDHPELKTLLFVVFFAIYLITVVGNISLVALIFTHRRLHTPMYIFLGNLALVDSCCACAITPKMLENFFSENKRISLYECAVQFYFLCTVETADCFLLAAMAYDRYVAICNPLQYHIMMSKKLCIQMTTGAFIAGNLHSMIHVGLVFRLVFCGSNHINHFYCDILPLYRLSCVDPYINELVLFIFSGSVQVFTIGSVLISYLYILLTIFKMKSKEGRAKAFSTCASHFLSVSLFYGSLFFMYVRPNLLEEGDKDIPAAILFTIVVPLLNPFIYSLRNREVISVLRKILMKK
Method: as §1, §2, §3, §4, §5

OR5P3 = target: T3, OR5P3 (Homo sapiens, UniProt Q8WZ94); test: Luciferase reporter assay: suppression of the skatole response of OR5P3 expressed in HEK293 cells; conditions: test substance 100 μM mixed with 300 μM skatole, HEK293 cells expressing OR5P3
T3 construct: expressed in transfected cells; host or cells: HEK293
T3 sequence (Q8WZ94 1-311): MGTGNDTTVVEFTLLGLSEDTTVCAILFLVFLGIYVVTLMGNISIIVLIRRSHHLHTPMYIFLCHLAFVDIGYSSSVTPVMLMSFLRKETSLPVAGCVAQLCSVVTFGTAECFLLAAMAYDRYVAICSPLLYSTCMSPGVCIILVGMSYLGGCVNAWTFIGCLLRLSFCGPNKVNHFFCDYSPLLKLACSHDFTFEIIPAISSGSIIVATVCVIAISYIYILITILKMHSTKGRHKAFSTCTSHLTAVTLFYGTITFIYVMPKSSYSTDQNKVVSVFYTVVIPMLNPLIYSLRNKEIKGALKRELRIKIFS
Method: as §1, §2, §3, §4, §5

OR8H1 = target: T4, OR8H1 (Homo sapiens, UniProt Q8NGG4); test: Luciferase reporter assay: suppression of the skatole response of OR8H1 expressed in HEK293 cells; conditions: test substance 100 μM mixed with 300 μM skatole, HEK293 cells expressing OR8H1; for inhibition at 100 µM: 4 h, read-out: Inhibition rate 8H1
T4 construct: expressed in transfected cells; host or cells: HEK293
T4 sequence (Q8NGG4 1-311): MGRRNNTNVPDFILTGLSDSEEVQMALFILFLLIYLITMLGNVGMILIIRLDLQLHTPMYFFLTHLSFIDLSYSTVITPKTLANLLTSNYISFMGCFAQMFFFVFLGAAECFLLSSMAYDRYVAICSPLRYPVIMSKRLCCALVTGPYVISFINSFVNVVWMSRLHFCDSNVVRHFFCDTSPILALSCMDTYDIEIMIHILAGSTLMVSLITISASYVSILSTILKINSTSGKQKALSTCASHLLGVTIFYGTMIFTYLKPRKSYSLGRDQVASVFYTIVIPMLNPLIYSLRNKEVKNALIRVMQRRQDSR
Method: as §1, §2, §3, §4, §5

| Molecule | inhibition at 100 µM (OR2W1) [%] | inhibition at 100 µM (OR5K1) [%] | Inhibition rate 5P3 (OR5P3) | inhibition at 100 µM (OR8H1) [%] | Inhibition rate 5K1 (OR5K1) | Inhibition rate 8H1 (OR8H1) | Inhibition rate 2W1 (OR2W1) |
| --- | --- | --- | --- | --- | --- | --- | --- |
| O=C1CCCCCCCCCCCCCCO1 [pentalide, Oxacyclohexadecan-2-one] | 50 to 80 | 50 to 80 | B (B >50%) | > 80 |  |  |  |
| C=CCCC(=O)C1=CCCC(C)(C)C1 [Dinascone, 1-(5,5-Dimethyl-cyclohexen-1-yl)-4-penten-1-one] | > 80 | 50 to 80 | B (B >50%) | > 80 |  |  |  |
| CCOC(=O)C1OC1(C)c1ccccc1 (stereo not shown) [Ethyl-2,3-epoxy-3-methyl-3-phenyl propionate] |  |  | C (C >20%) |  | C (C >20%) | B (B >50%) |  |
| CCCCCCOC(=O)c1ccccc1O [hexyl salicylate, n-Hexyl-o-hydroxy benzoate] |  |  | C (C >20%) |  |  |  | B (B >50%) |
| CC(C)Cc1ccc(CC(C)C=O)cc1 (stereo not drawn) [suzaral, α-Methyl-4-(2-methylpropyl)-benzenepropanal] | 20 to 50 | < 20 |  | 50 to 80 |  |  |  |
| CC(=O)OC(C)(C)Cc1ccccc1 [dimethylbenzylcarbinyl acetate, α,α-Dimethyl phenylethyl acetate] |  |  | C (C >20%) |  | C (C >20%) | B (B >50%) |  |
| 4(3)-(4-Methyl-3-pentenyl)-3-cyclohexenylmethyl acetate [myraldyl acetate] |  |  | C (C >20%) |  |  | C (C >20%) | C (C >20%) |
| CC(C)=CCCC1=CCC(C=O)CC1 (stereo not shown) [myrac aldehyde, 4-(4-Methyl-3-penten-1-yl)-3-cyclohexene-1-carboxaldehyde] | > 80 | < 20 |  | 20 to 50 |  |  |  |
| CC(=O)C=CC1=C(C)CCCC1(C)C [β-ionone, 4-(2,6,6-Trimethyi-1-cyclohexen-1-yl)-3-buten-2-one] |  |  |  |  | B (B >50%) | A (A >80%) | C (C >20%) |
| CC(C)(C)c1ccc(CCC=O)cc1 [bourgeonal, 3-(4-tert-butylphenyl)propionaldehyde] | > 80 | 50 to 80 |  | < 20 |  |  |  |
| C=C(C)C1CC=C(C=O)CC1 (stereo not shown) [perillaldehyde, 4-(1-Methylethenyl)-1-cyclohexene-1-carboxyaldehyde] | < 20 | 20 to 50 |  | 50 to 80 |  |  |  |
| CC(=O)OCCC(C)CCC=C(C)C (stereo not shown) [citronellyl acetate, 3,7-Dimethyl-6-octen-1-yl acetate] | 20 to 50 | 20 to 50 |  | 20 to 50 |  |  |  |
| C=CC(C)=CCC(C)(C)C(=NO)C(C)C [Labienoxime, 2,4,4,7-Tetramethyl-6,8-nonadiene-3-one oxime] | 50 to 80 | < 20 |  | 20 to 50 |  |  |  |
